Experimental data: ChEMBL document CHEMBL2046362, “Synthesis and evaluation of novel potent HCV NS5A inhibitors” (Bioorg Med Chem Lett, 2012)

Columns and labels:
[1] = Cytotoxicity against human HuH7 cells; format: cell-based, Huh-7
[2] = biological target: T1, Nonstructural protein 5A (Hepatitis C virus) (UniProt Q5L478); assay: Inhibition of HCV NS5A assessed as antiviral activity against HCV by viral replicon assay; details: Hepacivirus hominis
T1 sequence (whole entry): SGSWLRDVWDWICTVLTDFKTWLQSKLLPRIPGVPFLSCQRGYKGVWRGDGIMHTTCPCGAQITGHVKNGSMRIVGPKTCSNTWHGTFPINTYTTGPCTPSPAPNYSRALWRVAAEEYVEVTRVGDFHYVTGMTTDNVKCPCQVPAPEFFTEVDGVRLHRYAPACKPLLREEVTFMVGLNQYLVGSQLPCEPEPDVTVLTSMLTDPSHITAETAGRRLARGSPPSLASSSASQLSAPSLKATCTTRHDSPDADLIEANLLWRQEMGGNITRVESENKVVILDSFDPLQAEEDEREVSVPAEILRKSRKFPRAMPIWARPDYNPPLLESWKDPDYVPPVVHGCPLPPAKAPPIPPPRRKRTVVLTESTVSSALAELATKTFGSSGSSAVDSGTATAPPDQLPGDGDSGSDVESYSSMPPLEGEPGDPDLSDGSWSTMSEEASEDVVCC

PBMC = assay: Cytotoxicity against human PBMC cells; format: cell-based; details: pbmc
CCRF-CEM = assay: Cytotoxicity against human CEM cells; format: cell-based
Liver microsomes [3] = assay: Intrinsic clearance in human liver microsomes assessed per mg protein at 1 uM measured 5 to 60 mins post dose by LC-MS/MS nethod; format: ADME, Microsome
Liver microsomes [4] = assay: Half life in human liver microsomes at 1 uM measured 5 to 60 mins post dose by LC-MS/MS nethod; format: ADME, Microsome
Vero = assay: Cytotoxicity against african green monkey Vero cells; format: cell-based; details: chlorocebus sabaeus
[5] = Chemical stability in phosphate buffer assessed as compound degradation at pH 7 at 20 degC measured between 2 to 48 hrs during 48 hrs incubation period; format: physicochemical; details: pH 7, 48 h
[6] = Chemical stability in phosphate buffer assessed as compound degradation at pH 3 at 20 degC measured between 1 to 48 hrs during 48 hrs incubation period; details: pH 3, 48 h
CYP2D6 = CYP2D6 (Homo sapiens, UniProt P10635); assay: (§1) Inhibition of CYP2D6; format: ADME
CYP2D6, sequence (P10635 whole entry): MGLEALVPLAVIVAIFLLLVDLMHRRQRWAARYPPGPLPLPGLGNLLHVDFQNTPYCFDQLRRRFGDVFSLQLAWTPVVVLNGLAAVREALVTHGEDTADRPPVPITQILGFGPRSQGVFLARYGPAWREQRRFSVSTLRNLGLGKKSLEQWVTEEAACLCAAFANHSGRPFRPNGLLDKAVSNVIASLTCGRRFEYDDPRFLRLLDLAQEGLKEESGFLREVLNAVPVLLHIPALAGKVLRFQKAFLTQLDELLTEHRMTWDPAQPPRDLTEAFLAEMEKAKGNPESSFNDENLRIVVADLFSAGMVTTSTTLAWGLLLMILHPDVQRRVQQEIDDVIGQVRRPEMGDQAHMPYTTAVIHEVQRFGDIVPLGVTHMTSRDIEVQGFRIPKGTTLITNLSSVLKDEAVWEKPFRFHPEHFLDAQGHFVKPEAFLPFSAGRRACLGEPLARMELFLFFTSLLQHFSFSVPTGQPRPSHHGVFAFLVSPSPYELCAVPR

Cytochrome P450 2D6 = Cytochrome P450 2D6 (Homo sapiens, UniProt P10635); assay: as §1; format: ADME
Cytochrome P450 2D6, sequence (P10635 whole entry): as above

CYP2C9 = CYP2C9 (Homo sapiens, UniProt P11712); assay: (§2) Inhibition of CYP2C9; format: ADME
CYP2C9, sequence (P11712 whole entry): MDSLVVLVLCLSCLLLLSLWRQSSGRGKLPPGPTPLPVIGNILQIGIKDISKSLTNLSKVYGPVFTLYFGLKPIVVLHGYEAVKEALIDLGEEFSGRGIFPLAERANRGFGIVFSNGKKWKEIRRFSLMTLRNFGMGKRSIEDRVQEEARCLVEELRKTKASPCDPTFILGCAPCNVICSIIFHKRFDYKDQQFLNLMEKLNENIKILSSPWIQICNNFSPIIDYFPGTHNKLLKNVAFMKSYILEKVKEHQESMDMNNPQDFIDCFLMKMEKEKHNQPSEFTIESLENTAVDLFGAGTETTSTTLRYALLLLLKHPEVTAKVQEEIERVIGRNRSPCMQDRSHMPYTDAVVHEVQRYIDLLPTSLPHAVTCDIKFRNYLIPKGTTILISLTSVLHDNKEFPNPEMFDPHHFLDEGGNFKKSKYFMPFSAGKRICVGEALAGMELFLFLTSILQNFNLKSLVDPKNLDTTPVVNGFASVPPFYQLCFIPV

Cytochrome P450 2C9 = Cytochrome P450 2C9 (Homo sapiens, UniProt P11712); assay: as §2; format: ADME
Cytochrome P450 2C9, sequence (P11712 whole entry): as above

CYP3A4 = CYP3A4 (Homo sapiens, UniProt P08684); assay: (§3) Inhibition of CYP3A4; format: ADME
CYP3A4, sequence (P08684 whole entry): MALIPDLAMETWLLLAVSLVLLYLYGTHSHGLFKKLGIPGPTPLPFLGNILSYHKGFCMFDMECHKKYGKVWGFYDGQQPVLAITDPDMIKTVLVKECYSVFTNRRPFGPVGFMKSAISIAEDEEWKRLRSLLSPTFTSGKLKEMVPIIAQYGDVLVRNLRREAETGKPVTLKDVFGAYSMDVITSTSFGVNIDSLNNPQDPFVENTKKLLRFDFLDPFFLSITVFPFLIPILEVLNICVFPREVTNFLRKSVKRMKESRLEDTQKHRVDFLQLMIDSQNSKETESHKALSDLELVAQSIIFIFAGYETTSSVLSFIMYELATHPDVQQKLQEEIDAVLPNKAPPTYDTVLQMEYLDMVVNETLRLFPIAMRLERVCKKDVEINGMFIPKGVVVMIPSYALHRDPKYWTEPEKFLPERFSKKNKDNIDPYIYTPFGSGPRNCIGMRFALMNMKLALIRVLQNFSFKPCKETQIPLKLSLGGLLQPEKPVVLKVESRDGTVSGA

Cytochrome P450 3A4 = Cytochrome P450 3A4 (Homo sapiens, UniProt P08684); assay: as §3; format: ADME
Cytochrome P450 3A4, sequence (P08684 whole entry): as above

CYP1A2 = biological target: T2, CYP1A2 (Homo sapiens, UniProt P05177); assay: (§4) Inhibition of CYP1A2; format: ADME
T2 sequence (P05177 whole entry): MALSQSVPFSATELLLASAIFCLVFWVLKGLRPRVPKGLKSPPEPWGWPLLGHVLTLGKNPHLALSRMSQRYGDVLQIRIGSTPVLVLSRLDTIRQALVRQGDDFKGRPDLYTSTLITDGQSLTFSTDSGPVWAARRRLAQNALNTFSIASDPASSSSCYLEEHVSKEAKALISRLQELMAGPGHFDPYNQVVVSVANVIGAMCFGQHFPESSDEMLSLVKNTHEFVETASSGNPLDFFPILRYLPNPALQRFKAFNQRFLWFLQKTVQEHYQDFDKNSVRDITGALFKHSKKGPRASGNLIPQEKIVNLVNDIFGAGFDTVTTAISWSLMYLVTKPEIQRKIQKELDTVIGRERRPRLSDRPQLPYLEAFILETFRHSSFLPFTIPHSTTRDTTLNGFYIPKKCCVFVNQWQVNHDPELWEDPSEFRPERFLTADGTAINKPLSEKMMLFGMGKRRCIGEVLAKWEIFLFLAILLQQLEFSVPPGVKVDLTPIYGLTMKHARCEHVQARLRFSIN

Cytochrome P450 1A2 = biological target: T3, Cytochrome P450 1A2 (Homo sapiens, UniProt P05177); assay: as §4; format: ADME
T3 sequence (P05177 whole entry): T2 sequence (P05177 whole entry)

[7] = Cytotoxicity against human primary lymphocytes; format: cell-based; details: lymphocyte

Row | SMILES | CC50 [1] [µM] | EC90 [2] [nM] | CC50 (PBMC) [µM] | CC50 (CCRF-CEM) [µM] | CC50 (Vero) [µM] | other results
1 | COC(=O)N[C@H](C(=O)N1C[C@@H](N=[N+]=[N-])C[C@H]1c1nc(Br)c(-c2ccc(-c3ccc(-c4[nH]c([C@@H]5C[C@H](N=[N+]=[N-])CN5C(=O)[C@@H](NC(=O)OC)C(C)C)nc4Br)cc3)cc2)[nH]1)C(C)C | > 1 | 0.0553 | 3.4 | 4.5 | – | –
2 | COC(=O)N[C@H](C(=O)N1CCC[C@H]1c1nc(Br)c(-c2ccc(-c3ccc(-c4[nH]c([C@@H]5CCCN5C(=O)[C@@H](NC(=O)OC)C(C)C)nc4Br)cc3)cc2)[nH]1)C(C)C | > 1 | 0.014 | 2.9 | 5.7 | 84 | CLint (Liver microsomes [3]): 10.3 µL/min/mg; t1/2 (Liver microsomes [4]): 1.12 h; Stability [5]: Stable; Stability [6]: Stable
3 | COC(=O)N[C@H](C(=O)N1CCC[C@H]1c1nc(F)c(-c2ccc(-c3ccc(-c4[nH]c([C@@H]5CCCN5C(=O)[C@@H](NC(=O)OC)C(C)C)nc4F)cc3)cc2)[nH]1)C(C)C | > 1 | 0.0212 | 19 | 3 | > 100 | IC90 (CYP2D6): > 100 µM; IC50 (Cytochrome P450 2D6): > 100 µM; IC90 (CYP2C9): > 100 µM; IC50 (Cytochrome P450 2C9): > 100 µM; CLint (Liver microsomes [3]): 5.6 µL/min/mg; t1/2 (Liver microsomes [4]): 2.063 h; IC90 (CYP3A4): > 100 µM; IC50 (Cytochrome P450 3A4): 3.1 µM; IC90 (CYP1A2): > 100 µM; IC50 (Cytochrome P450 1A2): > 100 µM; Stability [5]: Stable; Activity [7]: Toxic; Stability [6]: Stable
4 | COC(=O)N[C@H](C(=O)N1C[C@@H](n2cc(C(=O)OC)nn2)C[C@H]1c1ncc(-c2ccc(-c3ccc(-c4cnc([C@@H]5C[C@H](n6cc(C(=O)OC)nn6)CN5C(=O)[C@@H](NC(=O)OC)C(C)C)[nH]4)cc3)cc2)[nH]1)C(C)C | > 1 | > 10 | > 100 | > 100 | – | –
5 | COC(=O)N[C@H](C(=O)N1C[C@H](N=[N+]=[N-])C[C@H]1c1nc(Br)c(-c2ccc(-c3ccc(-c4[nH]c([C@@H]5C[C@@H](N=[N+]=[N-])CN5C(=O)[C@@H](NC(=O)OC)C(C)C)nc4Br)cc3)cc2)[nH]1)C(C)C | > 1 | 0.0216 | 19.8 | 10.8 | > 100 | –
6 | COC(=O)N[C@H](C(=O)N1C[C@H](n2cc(C(=O)OC)nn2)C[C@H]1c1ncc(-c2ccc(-c3ccc(-c4cnc([C@@H]5C[C@@H](n6cc(C(=O)OC)nn6)CN5C(=O)[C@@H](NC(=O)OC)C(C)C)[nH]4)cc3)cc2)[nH]1)C(C)C | > 1 | 0.0428 | 6.6 | 10.7 | > 100 | –
7 | COC(=O)N[C@H](C(=O)N1C[C@@H](N=[N+]=[N-])C[C@H]1c1nc(Cl)c(-c2ccc(-c3ccc(-c4[nH]c([C@@H]5C[C@H](N=[N+]=[N-])CN5C(=O)[C@@H](NC(=O)OC)C(C)C)nc4Cl)cc3)cc2)[nH]1)C(C)C | > 1 | 0.0746 | 3.3 | 4 | 98.1 | –
8 | COC(=O)N[C@H](C(=O)N1CCC[C@H]1c1nc(-c2ccc(-c3ccc(-c4c[nH]c([C@@H]5CCCN5C(=O)[C@@H](NC(=O)OC)C(C)C)n4)cc3)cc2)c[nH]1)C(C)C | > 1 | – | – | – | – | IC50 (Cytochrome P450 2C9): 59.5 µM; t1/2 (Liver microsomes [4]): 0.938 h
9 | COC(=O)N[C@H](C(=O)N1C[C@H](n2cc(-c3ccccc3)nn2)C[C@H]1c1ncc(-c2ccc(-c3ccc(-c4cnc([C@@H]5C[C@@H](n6cc(-c7ccccc7)nn6)CN5C(=O)[C@@H](NC(=O)OC)C(C)C)[nH]4)cc3)cc2)[nH]1)C(C)C | > 1 | 9.2 | > 100 | > 100 | – | –
10 | COC(=O)N[C@H](C(=O)N1CCC[C@H]1c1ncc(-c2ccc(-c3ccc(-c4cnc([C@@H]5CCCN5C(=O)[C@@H](NC(=O)OC)C(C)C)[nH]4)cc3)cc2)[nH]1)C(C)C | – | 0.02 | – | – | – | –
11 | COC(=O)N[C@H](C(=O)N1CCC[C@H]1c1ncc(-c2ccc(-c3ccc(-c4[nH]c([C@@H]5CCCN5C(=O)[C@@H](NC(=O)OC)C(C)C)nc4F)cc3)cc2)[nH]1)C(C)C | > 1 | 0.0525 | 16 | 2.8 | 83 | –
12 | COC(=O)N[C@H](C(=O)N1C[C@H](N=[N+]=[N-])C[C@H]1c1nc(Cl)c(-c2ccc(-c3ccc(-c4[nH]c([C@@H]5C[C@@H](N=[N+]=[N-])CN5C(=O)[C@@H](NC(=O)OC)C(C)C)nc4Cl)cc3)cc2)[nH]1)C(C)C | > 1 | 0.0096 | 7.8 | 3.8 | > 100 | –
13 | COC(=O)N[C@H](C(=O)N1C[C@H](N=[N+]=[N-])C[C@H]1c1ncc(-c2ccc(-c3ccc(-c4[nH]c([C@@H]5C[C@@H](N=[N+]=[N-])CN5C(=O)[C@@H](NC(=O)OC)C(C)C)nc4Cl)cc3)cc2)[nH]1)C(C)C | > 1 | 0.0295 | 9.7 | 31 | > 100 | –
14 | COC(=O)N[C@H](C(=O)N1CCC[C@H]1c1nc(I)c(-c2ccc(-c3ccc(-c4[nH]c([C@@H]5CCCN5C(=O)[C@@H](NC(=O)OC)C(C)C)nc4I)cc3)cc2)[nH]1)C(C)C | > 1 | 0.011 | 4.7 | 35 | > 100 | CLint (Liver microsomes [3]): 18 µL/min/mg; t1/2 (Liver microsomes [4]): 0.642 h; Stability [5]: Stable; Activity [7]: Toxic; Stability [6]: Stable
15 | COC(=O)N[C@H](C(=O)N1CCC[C@H]1c1nc(-c2ccccc2)c(-c2ccc(-c3ccc(-c4[nH]c([C@@H]5CCCN5C(=O)[C@@H](NC(=O)OC)C(C)C)nc4-c4ccccc4)cc3)cc2)[nH]1)C(C)C | > 1 | 0.7 | > 100 | 37.4 | > 100 | –
16 | COC(=O)N[C@H](C(=O)N1C[C@@H](N=[N+]=[N-])C[C@H]1c1ncc(-c2ccc(-c3ccc(-c4cnc([C@@H]5C[C@H](N=[N+]=[N-])CN5C(=O)[C@@H](NC(=O)OC)C(C)C)[nH]4)cc3)cc2)[nH]1)C(C)C | > 1 | 0.0352 | 20.3 | 18.4 | > 100 | –
17 | COC(=O)N[C@H](C(=O)N1CCC[C@H]1c1nc(Cl)c(-c2ccc(-c3ccc(-c4[nH]c([C@@H]5CCCN5C(=O)[C@@H](NC(=O)OC)C(C)C)nc4Cl)cc3)cc2)[nH]1)C(C)C | > 1 | 0.0114 | 2.8 | 12 | 100 | IC90 (CYP2D6): > 100 µM; IC50 (Cytochrome P450 2D6): > 100 µM; IC90 (CYP2C9): > 100 µM; IC50 (Cytochrome P450 2C9): 81.6 µM; CLint (Liver microsomes [3]): 5.8 µL/min/mg; t1/2 (Liver microsomes [4]): 1.992 h; IC90 (CYP3A4): > 100 µM; IC50 (Cytochrome P450 3A4): 13.8 µM; IC90 (CYP1A2): > 100 µM; IC50 (Cytochrome P450 1A2): > 100 µM; Stability [5]: Stable; Stability [6]: Stable
18 | COC(=O)N[C@H](C(=O)N1C[C@@H](n2cc(-c3ccccc3)nn2)C[C@H]1c1ncc(-c2ccc(-c3ccc(-c4cnc([C@@H]5C[C@H](n6cc(-c7ccccc7)nn6)CN5C(=O)[C@@H](NC(=O)OC)C(C)C)[nH]4)cc3)cc2)[nH]1)C(C)C | > 1 | > 10 | 96 | – | > 100 | –
19 | COC(=O)N[C@H](C(=O)N1CCC[C@H]1c1nc(-c2cccs2)c(-c2ccc(-c3ccc(-c4[nH]c([C@@H]5CCCN5C(=O)[C@@H](NC(=O)OC)C(C)C)nc4-c4cccs4)cc3)cc2)[nH]1)C(C)C | > 1 | 0.3 | 44.6 | > 100 | > 100 | –
20 | COC(=O)N[C@H](C(=O)N1CCC[C@H]1c1nc(-c2ccco2)c(-c2ccc(-c3ccc(-c4[nH]c([C@@H]5CCCN5C(=O)[C@@H](NC(=O)OC)C(C)C)nc4-c4ccco4)cc3)cc2)[nH]1)C(C)C | > 1 | 0.097 | 49.2 | 2.9 | > 100 | –
